± gives the expanded uncertainty stated by the source.
How the values were obtained:
[1] = mn = molality of the nth substance listed, in mol/kg; conditions: 101 kPa, Liquid
[2] = wn = mass fraction of the nth substance listed; conditions: 101 kPa, Liquid

O=C([O-])[C@H](O)[C@@H](O)C(=O)[O-].[Na+].[Na+] [disodium L-tartrate] + O
Conditions	mass density, 298.15 K [kg/m3]	mass density, 308.15 K [kg/m3]	mass density, 318.15 K [kg/m3]	speed of sound, 298.15 K [m/s]	speed of sound, 308.15 K [m/s]	speed of sound, 318.15 K [m/s]	viscosity, 298.15 K [mPa·s]	viscosity, 308.15 K [mPa·s]	viscosity, 318.15 K [mPa·s]
[1], m1 = 0.0325	1001.45 ± 0.58	998.34 ± 0.59	994.47 ± 0.58	1502 ± 3.3	1524.8 ± 3.3	1541.3 ± 3.3	–	–	–
[1], m1 = 0.0351	1001.8 ± 0.58	998.7 ± 0.58	994.82 ± 0.58	1502.3 ± 3.3	1525.2 ± 3.3	1541.7 ± 3.3	–	–	–
[1], m1 = 0.0405	1002.51 ± 0.58	999.4 ± 0.58	995.52 ± 0.58	1503.1 ± 3.3	1526 ± 3.3	1542.3 ± 3.3	–	–	–
[1], m1 = 0.0552	1004.48 ± 0.58	1001.34 ± 0.58	997.43 ± 0.58	1505.4 ± 3.3	1528 ± 3.3	1544.3 ± 3.3	–	–	–
[1], m1 = 0.0576	1004.79 ± 0.58	1001.64 ± 0.58	997.72 ± 0.58	1505.7 ± 3.3	1528.4 ± 3.3	1544.6 ± 3.3	–	–	–
[1], m1 = 0.0673	1006.08 ± 0.59	1002.91 ± 0.58	998.99 ± 0.58	1507.2 ± 3.3	1529.7 ± 3.3	1545.9 ± 3.3	–	–	–
[1], m1 = 0.0747	1007.06 ± 0.59	1003.87 ± 0.58	999.92 ± 0.57	1508.2 ± 3.3	1530.7 ± 3.3	1547 ± 3.3	–	–	–
[1], m1 = 0.0814	1007.94 ± 0.59	1004.73 ± 0.58	1000.77 ± 0.57	1509.9 ± 3.3	1531.6 ± 3.3	1547.7 ± 3.3	–	–	–
[1], m1 = 0.1365	1015.14 ± 0.6	1011.79 ± 0.59	1007.83 ± 0.58	1517.3 ± 3.3	1539.2 ± 3.3	1554.9 ± 3.3	–	–	–
[1], m1 = 0.2798	1033.29 ± 0.63	1029.68 ± 0.62	1025.48 ± 0.61	1537.5 ± 3.3	1558.2 ± 3.3	1572.9 ± 3.4	–	–	–
[1], m1 = 0.4159	1049.92 ± 0.66	1046.11 ± 0.65	1041.78 ± 0.64	1556.3 ± 3.3	1575.8 ± 3.4	1589.4 ± 3.4	–	–	–
[1], m1 = 0.5661	1067.63 ± 0.7	1063.54 ± 0.69	1059.16 ± 0.68	1576.4 ± 3.4	1594.6 ± 3.4	1607.3 ± 3.4	–	–	–
[1], m1 = 0.7158	1084.68 ± 0.73	1080.39 ± 0.72	1075.77 ± 0.71	1598.6 ± 3.4	1615.3 ± 3.4	1624.1 ± 3.4	–	–	–
[1], m1 = 0.888	1103.52 ± 0.78	1098.96 ± 0.77	1094.15 ± 0.75	1618.5 ± 3.4	1633.8 ± 3.4	1644 ± 3.5	–	–	–
[1], m1 = 1.055	1121.13 ± 0.82	1116.46 ± 0.81	1111.35 ± 0.79	1639.6 ± 3.4	1653.6 ± 3.5	1662.2 ± 3.5	–	–	–
[1], m1 = 1.211	1137 ± 0.86	1132.16 ± 0.85	1126.7 ± 0.83	1659 ± 3.5	1671.7 ± 3.5	1679.2 ± 3.5	–	–	–
[1], m1 = 1.412	1156.69 ± 0.91	1151.68 ± 0.89	1146.41 ± 0.88	1683.6 ± 3.5	1694.5 ± 3.5	1701.2 ± 3.5	–	–	–
[1], m1 = 1.593	1173.71 ± 0.95	1168.58 ± 0.94	1163.14 ± 0.92	1705.1 ± 3.5	1714.6 ± 3.5	1719.8 ± 3.5	–	–	–
[1], m1 = 1.749	1187.9 ± 0.99	1182.99 ± 0.98	1176.91 ± 0.96	1723.3 ± 3.5	1732 ± 3.6	1734.8 ± 3.6	–	–	–
[1], m1 = 2.203	1226.56 ± 1.1	1221.08 ± 1.1	1215.23 ± 1.1	1774 ± 3.6	1778.7 ± 3.6	1779.7 ± 3.6	–	–	–
[2], w1 = 0.01986	–	–	–	–	–	–	0.932 ± 0.024	0.773 ± 0.02	0.644 ± 0.018
[2], w1 = 0.03991	–	–	–	–	–	–	0.995 ± 0.025	0.824 ± 0.022	0.683 ± 0.018
[2], w1 = 0.06024	–	–	–	–	–	–	1.06 ± 0.027	0.885 ± 0.023	0.726 ± 0.019
[2], w1 = 0.08009	–	–	–	–	–	–	1.137 ± 0.028	0.952 ± 0.024	0.782 ± 0.021
[2], w1 = 0.09999	–	–	–	–	–	–	1.23 ± 0.03	1.02 ± 0.026	0.832 ± 0.022
[2], w1 = 0.12	–	–	–	–	–	–	1.321 ± 0.032	1.098 ± 0.028	0.894 ± 0.023
[2], w1 = 0.14	–	–	–	–	–	–	1.431 ± 0.035	1.184 ± 0.03	0.959 ± 0.025
[2], w1 = 0.16	–	–	–	–	–	–	1.56 ± 0.038	1.278 ± 0.032	1.024 ± 0.026
[2], w1 = 0.1795	–	–	–	–	–	–	1.706 ± 0.041	1.38 ± 0.034	1.101 ± 0.028
[2], w1 = 0.2007	–	–	–	–	–	–	1.891 ± 0.045	1.519 ± 0.037	1.215 ± 0.03
[2], w1 = 0.2196	–	–	–	–	–	–	2.086 ± 0.049	1.669 ± 0.04	1.334 ± 0.033
[2], w1 = 0.2402	–	–	–	–	–	–	2.301 ± 0.054	1.857 ± 0.045	1.475 ± 0.036
[2], w1 = 0.26	–	–	–	–	–	–	2.563 ± 0.06	2.055 ± 0.049	1.647 ± 0.04
[2], w1 = 0.2806	–	–	–	–	–	–	2.897 ± 0.067	2.305 ± 0.055	1.846 ± 0.044

— the NIST ThermoML archive (doi:10.1021/je050498q)
